Assay results as given in patent publication US20250082700A1, “METHODS AND COMPOSITIONS OF TREATING BIOLFILM-RELATED DISEASES” (UNIVERSITY OF ROCHESTER, priority 2022, published 2025).
Ends that are not written are not given here.

Key:
[1] = tested on: C. albicans from 1 representative S-ECC child; assay: Inhibition of C. albicans clinical isolate by plantaricin (MIC); assay type: cell-based, Candida albicans; settings: clear culture plated, additional 48 hours
Experimental: (§1) Bacteriocins, antimicrobial molecules, produced by L. plantarum are known as plantaricins. Peptide plantaricin-149 (acetate) powers (Creative Peptides, Shirley, USA) were dissolved in ddH2O to prepare plantaricin solutions. S. mutans (3.6×10^3 CFU/ml) and C. albicans (3.1×10^1 CFU/ml) from 1 representative S-ECC child were selected and treated with the plantaricin with a range of concentration (0-400 μg/ml). The mixtures of plantaricin with S. mutans or C. albicans were grown for 24 hours in TSBYE with 1% glucose in 96-well plates. Clear culture after 24 hours' incubation indicated no growth of microorganisms. Therefore, the minimal inhibition concentration (MIC) of plantaricin-149 was defined as the lowest concentration that inhibited the growth of S. mutans and C. albicans.
(§2) S. mutans (3.6×10^3 CFU/ml) and C. albicans (3.1×10^1 CFU/ml) were treated by the plantaricin ranging from 0-400 ng/ml respectively, and grew for 24 h in 1% glucose condition. The MIC of plantaricin was 400 ng/ml for S. mutans and 200 ng/ml for C. albicans. The clear culture was plated and incubated for additional 48 hours.

[2] = tested on: S. mutans from 1 representative S-ECC child; assay: Inhibition of S. mutans clinical isolate by plantaricin (MIC); assay type: cell-based, Streptococcus mutans; settings: clear culture plated, additional 48 hours
Experimental: as §1, §2

YSLQMGATAIKQVKKLFKKKGG [plantaricin]
nature of inhibitory effect on C. albicans [1]: fungistatic
nature of inhibitory effect on S. mutans [2]: bacteriostatic
